Experimental findings from patent US12319946B2, “Methods for producing modified bacteria for production of nitroaromatics” (priority 2018, dated 2025) are described below.

“Also recorded” adds a separate entry of the source.

The test system of experiment [1] is E. coli BL21-GOLD (DE3) carrying Nitrotrp pathways (TB14, BsNOS, GDH). In kind it is cell-based, Escherichia coli. Particulars: for nitration of fed analog by E. coli-II: 5 mM analog fed to fermentation medium of E. coli-II.
Experiment [2] deals with E. coli BL21 Gold cells expressing TB14, BsNOS and GDH. As to the kind of experiment: Whole-cell biotransformation (whole cell nitration system, Example 2/278). The format is cell-based, Escherichia coli. Conditions: TB medium, analogue fed as substrate. The procedure: For analytical analysis, an HPLC column was kept at 40° C., water with 0.1% formic acid was used as solvent A and acetonitrile with 0.1% formic acid was used as solvent B. The column was eluted first with 1% solvent B for 1 min and then with a linear gradient of 1-20% solvent B in 8 min, followed by another linear gradient of 20-99% solvent B in 2 min. The column was further cleaned with 99% solvent B for 2 min and then re-equilibrated with 1% solvent B for 2 min. The flow rate was set as 1 ml/min, and the products were detected at […] with a PDA detector.
E. coli BL21 Gold cells containing pETDuet and pET28b derived plasmids were grown from glycerol stock overnight in 5 mL Luria broth with 0.1 mg/mL ampicillin and 0.05 mg/mL kanamycin (37° C., 250 rpm). The pre-culture was used to inoculate 100 mL of Terrific broth medium (0.1 mg/mL ampicillin and 0.05 mg/mL kanamycin) in a 500 mL flask; this culture was incubated at 37° C., 250 rpm to OD600=0.6-0.8. The cultures were cooled on water-ice mixture and induced with 0.5 mM IPTG, Expression was conducted at 18° C., 250 rpm, for 20 h. For the culture of E. coli BL21 Gold cells containing pACYCDuet and pET28b derived plasmids, 0.05 mg/mL chloramphenicol was used instead of 0.05 mg/mL kanamycin. The cultures were then harvested and resuspended to OD600=30 in test medium, Aliquots of the cell suspension were used in the whole cell transformation. To a test tube was added 5 mL cell suspension, 25 μL 100 mM L-Trp or L-Trp analogues, and 25 μL 100 mM L-Arg when necessary. The mixture was then incubated at different conditions. The reactions were quenched by adding equal volume of methanol and the resulting mixture was aliquoted and transferred to a microcentrifuge tube and centrifuged at 14,000 rpm for 10 minutes. The supernatant was transferred to an HPLC vial and analyzed by LC-MS.

The target in a further experiment is T1, TnaA (Escherichia coli, UniProt P0A853).
T1 construct: made in house; host or cells: E. coli BL21-GOLD (DE3)
T1 sequence (P0A853 whole entry): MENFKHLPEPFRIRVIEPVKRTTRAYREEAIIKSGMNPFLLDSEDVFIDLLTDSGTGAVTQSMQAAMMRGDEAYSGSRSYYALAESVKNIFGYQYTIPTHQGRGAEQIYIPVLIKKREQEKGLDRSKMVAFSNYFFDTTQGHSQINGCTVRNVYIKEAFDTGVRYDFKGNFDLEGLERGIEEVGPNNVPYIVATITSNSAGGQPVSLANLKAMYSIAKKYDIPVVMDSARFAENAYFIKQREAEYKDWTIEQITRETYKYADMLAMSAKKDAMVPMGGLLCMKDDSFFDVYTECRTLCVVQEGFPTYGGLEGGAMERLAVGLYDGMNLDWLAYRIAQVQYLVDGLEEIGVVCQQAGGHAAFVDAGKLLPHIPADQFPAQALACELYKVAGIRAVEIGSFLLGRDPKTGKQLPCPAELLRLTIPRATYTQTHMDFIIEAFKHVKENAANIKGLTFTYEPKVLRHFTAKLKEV
Description: TnaA assay (in vitro, recombinant tryptophanase). Particulars: 0.1 μM purified TnaA, 0.5 mM substrate, 37° C., 10 min. In kind it is biochemical, E. coli. As to the method:
The reactions contained 0.1 μM purified TnaA and 0.5 mM substrate and incubated at 37° C. for 10 min. No 4-nitro indole was produced in the enzyme reaction.
PCR amplicons were analyzed by agarose gel and extracted with GeneJET Gel Extraction Kit (Thermo). Purified PCR products and pET28b were digested with corresponding restriction enzymes, purified and then ligated to create expression constructs. Insert in the construct was sequenced to exclude potential errors introduced during PCR amplification and gene manipulation. Recombinant TnaA was prepared in E. coli BL21-GOLD (DE3). The enzyme assay (0.1 mL) contained 100 mM potassium phosphate buffer (pH 8.3), 0.2 mM pyridoxal 5-phosphate and 0.1 μM purified tnaA. The reaction mixtures were pre-warmed at 37° C. for 5 minutes, and initiated by adding 0.5 mM 1-Trp or Nitrotrp as substrate. After 10 minutes, the reactions were quenched by mixing well with 0.2 mL of methanol. After centrifugation at 14,000 rpm for 30 minutes, the supernatant was subject to HPLC analysis. All experiments were independently repeated at least twice.

Turning to `N[C@@H](Cc1c[nH]c2cccc(F)c12)C(=O)O` [Example 4-F-Trp, 4-F-Trp], in experiment [1], the “nitration of fed analog by E. coli-II” value is on record as “nitrated”. For the same molecule, the “nitration of tryptophan analogue by whole cell nitration system” value (“nitration of tryptophan analogue” for short) in experiment [2] is given as “successfully nitrated”.

As for `Cc1cccc2[nH]cc(C[C@H](N)C(=O)O)c12` [Example 4-Me-Trp, 4-Me-Trp], the “nitration of fed analog by E. coli-II” value in experiment [1] was “nitrated”. Further, in experiment [2], the “conversion rates in whole cell-based nitration” value (shortened to “conversion rates”) is given as “highest conversion rates” and the “nitration of tryptophan analogue” value is “successfully nitrated”.

Take `N[C@@H](Cc1c[nH]c2cccc([N+](=O)[O-])c12)C(=O)O` [Example 4-NO2-L-Trp, 4-NO2-L-Trp]: the “conversion/decomposition by recombinant TnaA” value (from here on “conversion/decomposition”) at TnaA is on record as “not able to decompose”.

As for `N[C@@H](Cc1c[nH]c2ccc(F)cc12)C(=O)O` [Example 5-F-Trp, 5-F-Trp], the “nitration of fed analog by E. coli-II” value in experiment [1] was “nitrated”. In addition, in experiment [2], the “conversion rates” value is recorded as “highest conversion rates” and the “nitration of tryptophan analogue” value is “successfully nitrated”.

Consider `Cc1ccc2[nH]cc(C[C@H](N)C(=O)O)c2c1` [Example 5-Me-Trp, 5-Me-Trp], for which the “nitration activity of the strain toward substrate (rank)” value in experiment [1] (5 mM analog fed to E. coli-II) is given as “highest nitration activity”. Besides, the “nitration of fed analog by E. coli-II” value in experiment [1] is “nitrated”. Besides, in experiment [2], the “conversion rates” value is “highest conversion rates” and the “nitration of tryptophan analogue” value is listed as “successfully nitrated”.

On to `COc1ccc2[nH]cc(C[C@H](N)C(=O)O)c2c1` [Example 5-MeO-Trp, 5-MeO-Trp], for which the “nitration of fed analog by E. coli-II” value in experiment [1] is “nitrated”. Besides, the “nitration of tryptophan analogue” value in experiment [2] is “successfully nitrated”.

On to `N[C@@H](Cc1c[nH]c2cc(F)ccc12)C(=O)O` [Example 6-F-Trp, 6-F-Trp], for which the “nitration of fed analog by E. coli-II” value in experiment [1] is recorded as “nitrated”. Besides, in experiment [2], the “nitration of tryptophan analogue” value is on record as “successfully nitrated”.

`Cc1cccc2c(C[C@H](N)C(=O)O)c[nH]c12` [Example 7-Me-Trp, 7-Me-Trp]: the “nitration of fed analog by E. coli-II” value in experiment [1] is recorded as “nitrated”. Further, the “nitration of tryptophan analogue” value in experiment [2] is listed as “successfully nitrated”.

On to `N[C@@H](Cc1c[nH]c2ccccc12)C(=O)O` [L-Trp, L-tryptophan], for which the “conversion/decomposition” value at TnaA is recorded as “produced indole”.

For `N[C@@H](Cc1c[nH]c2cccc([N+](=O)[O-])c12)C(=O)O` [Nitrotrp], the “conversion/decomposition” value at TnaA is “does not convert; also recorded: not observed”.

Consider `C[C@](N)(Cc1c[nH]c2ccccc12)C(=O)O` [α-Me-Trp], for which the “nitration of fed analog by E. coli-II” value in experiment [1] was “nitrated”. In addition, the “nitration of tryptophan analogue” value in experiment [2] was “successfully nitrated”.
